Reference: patent US11220534B2, “Treatment of neurological diseases” (Lancaster University Business Enterprises Limited, priority 2016, dated 2022)
Where no end group is shown, it is not given here. [ ]: non-standard residue; d: D form. Aib = CC(C)(N)C(=O)O

Columns and labels:
[1] = tested on: APP/PS1 mouse model of AD; conditions: 12 months old APP/PS1 mice; cited from earlier work
[2] = tested on: MPTP mouse model of Parkinson's disease; conditions: cited from earlier work
APP/PS1 transgenic mice [3] = assay: Immunohistochemical measurement of synaptic densities (synaptophysin) in the cortex of APP/PS1 transgenic mice; type: in vivo; conditions: 10 nmol/kg i.p. once daily for 8 weeks, FIG. 2, N=6 per group
From the text: (§1) Animal models have been developed to test novel drugs. A standard model for Alzheimer's disease is transgenic mice that express human mutated genes for amyloid production that are known to induce Alzheimer's disease in humans. These APP/PS1 transgenic mice recapitulate some of the symptoms of Alzheimer's disease such as the aggregation of amyloid in the brain, memory loss and the loss of synapses (Radde et al., 2006).
(§2) The APP/PS1 mice express human Swedish mutated APP and human mutated presenilin-1 which induce Alzheimer's Disease in humans.
(§3) The dose of peptide tested was 10 nmol/kg body weight. The peptides were administered by a once-daily intraperitoneal injection for 8 weeks. Saline injections were administered as a control. Six animals per group were injected with a peptide or a saline control.
Animals (6 per group) were perfused transcardially with 30 ml of ice-cold PBS and 30 ml of ice-cold 4% paraformaldehyde to postfix the brain. The brains were removed and placed in fresh 30% sucrose solution in PBS to cryoprotect tissue and cut at a thickness of 40 μm on a cryostat. Sections were chosen according to stereological rules, with the first section taken at random and every 5th section afterwards. Between 7 and 13 sections were analysed per brain. […]

APP/PS1 transgenic mice [4] = assay: Immunohistochemical measurement of beta-amyloid plaque load in the cortex of APP/PS1 transgenic mice; type: in vivo
From the text: as §1, §2, §3
Animals (6 per group) were perfused transcardially with 30 ml of ice-cold PBS and 30 ml of ice-cold 4% paraformaldehyde to postfix the brain. The brains were removed and placed in fresh 30% sucrose solution in PBS to cryoprotect tissue and cut at a thickness of 40 μm on a cryostat. Sections were chosen according to stereological rules, with the first section taken at random and every 5th section afterwards. Between 7 and 13 sections were analysed per brain.
Immunostaining techniques were used to assess the neuronal plaque load (anti beta-amyloid rabbit polyclonal antibody (1:200, rabbit polyclonal-Invitrogen 71-5800) and of synaptophysin (polyclonal rabbit anti-synaptophysin primary antibody, 1:2000, Abcam, Cambridge, UK) to measure the amount of synapses in the cortex. Brain samples were first exposed to 99% formic acid for 7 minutes and then washed 3 times for 10 minutes in TBS. Pre-treatment with 99% formic acid is known to drastically increase the detection of beta-Amyloid in formalin-fixed brain samples. Then samples were incubated in 0.3% H2O2 (Sigma Aldrich; Cat.-No.: 516813) in TBS for 30 minutes on the shaker to deplete endogenous peroxides activity, and were 3 times washed in TBS for 10 minutes afterwards.
To increase permeability of membranes in the brain tissue, samples were exposed to 0.3% Triton X-100 (Sigma Aldrich; Cat.-No.: 516813) in TBS for 10 minutes on the shaker. Unspecific proteinophilic binding in the tissue was saturated by incubating the samples with 5% goat serum (Gibco; Cat.-No.: 16210-064) in TBS for 30 minutes on the shaker.
A primary antibody against beta-Amyloid or synaptophysin was added and incubated overnight on the shaker at 4° C. The antibody was polyclonal and raised against a synthetic beta-Amyloid 1-43 peptide in rabbit. The primary antibody was used in a final dilution of 1 to 250 in TBS containing 2% goat serum and […]. […]

C57BL/6 mice given MPTP [5] = assay: Rotarod motor control test in the MPTP Parkinson mouse model; type: in vivo; conditions: 10 nmol/kg i.p. once daily for 2 weeks, FIG. 3, N=6 per group
From the text: (§4) A standard model to induce Parkinson like symptoms in mice is the injection of the chemical (MPTP) (Li et al., 2009). This chemical impairs or kills neurons in the brain that produce dopamine. The mice develop motor impairments, and the dopaminergic neurons in the brain are reduced in numbers and function. The enzyme tyrosine hydroxylase (TH) is required to synthesise dopamine. A loss of TH signifies a loss of dopamine production (Harkavyi et al., 2008).
Adult male C57BL/6 mice were given the dopaminergic toxin MPTP (20 mg/kg in 0.1 mL of PBS i.p. at 2-h intervals of 4 doses MPTP; Sigma) or vehicle (PBS) for one day. This treatment selectively affects dopaminergic neurons and induces Parkinson-like symptoms in mice.
The dose of peptide tested was 10 nmol/kg body weight. The peptides were administered by a once-daily intraperitoneal injection for 2 weeks. Saline injections were administered as a control. Six animals per group were injected with a peptide or a saline control.
The rotarod consists of a rotating pole that accelerates over time. Mice are placed on the rod, and motor skills are tested by accelerating the rotation. As the rotation increases, animals lose grip and fall on a cushion located below the rod. […] Each animal's endurance time was recorded, and the average was calculated. Data were analysed using a one-way ANOVA with post-hoc Bonferroni tests.

C57BL/6 mice given MPTP [6] = assay: Immunohistochemistry for TH in the substantia nigra pars compacta, MPTP Parkinson mouse model; type: in vivo; conditions: 10 nmol/kg i.p. once daily for 2 weeks, FIG. 4, N=6 per group
From the text: as §4
Adult male C57BL/6 mice were given the dopaminergic toxin MPTP (20 mg/kg in 0.1 mL of PBS i.p. at 2-h intervals of 4 doses MPTP; Sigma) or vehicle (PBS) for one day. […]
Immunohistochemistry for TH in the Substantia Nigra Pars Compacta and the Striatum Six animals per group were analysed for expression of tyrosine hydroxylase (TH), a marker for dopamine production. Coronal brain sections (20 μm) from striatum (bregma […]) and SNpc (bregma […]) were analysed by immunohistochemistry using antibodies recognising TH.
Sections were cut on a cryostat and postfixed in 4% paraformaldehyde, washed in PBS, treated with 0.3% H2O2 in methanol for 20 min, and washed again. […] For each animal, three tissue sections from one level of striatum were stained and analysed for TH-positive fibre innervation. […] Two tissue sections from each level were quantified by immunohistochemistry. […]

Row | Substance | amyloid plaque load [1] | synaptic plasticity in area CA1 of the hippocampus and spatial memory formation [1] | motor impairment, chronic inflammation in the brain and loss of dopaminergic neurons induced by MPTP [2] | synapse loss / synaptic densities in the cortex (APP/PS1 transgenic mice [3]) | beta-amyloid plaque load in the cortex (% area positive for beta amyloid in cross sections of the brain cortex) (APP/PS1 transgenic mice [4]; 10 nmol/kg body weight, once-daily intraperitoneal injection for 8 weeks, FIG. 1, N=6 per group) | beta-amyloid plaque load compared with the single GIP or GLP-1 analogues (APP/PS1 transgenic mice [4]; 10 nmol/kg i.p. once daily for 8 weeks, FIG. 1) | impairment of motor skills (rotarod endurance time) (C57BL/6 mice given MPTP [5]) | MPTP-induced reduction of TH in the substantia nigra, pars compacta (protection of dopaminergic neurons) (C57BL/6 mice given MPTP [6])
1 | D-Ala^2-GIP | much reduced | unimpaired | protective and prevented the impairment of motor activity, the loss of dopaminergic neurons, loss of synapses and the chronic inflammation response induced by MPTP |  |  |  |  | 
2 | YXEGTFTSDYSIYLDKQAAXEFVNWLLAGGPSSGAPPPSKKKKKK-NH2 (Y[Aib]EGTFTSDYSIYLDKQAA[Aib]EFVNWLLAGGPSSGAPPPSKKKKKK-NH2) [DA4, No. 11; X=aminoisobutyric acid] |  |  |  | protected from synapse loss | reduces beta-amyloid plaque load | superior to the single GIP or GLP-1 analogues | protect mice from an impairment of motor skills induced by MPTP | protected dopaminergic neurons at a greater rate than the single GIP and GLP-1 analogues
3 | lixisenatide |  |  | good effects in preventing the motor impairment, chronic inflammation in the brain, and loss of dopaminergic neurons |  |  |  |  | 
